The subject of assay [1] is corpus cavernosal smooth muscle cells (CCSM). Briefly: cAMP production in primary corpus cavernosal / penile vascular smooth muscle cells (CCSM, PVSM). In kind it is cell-based, mouse. Conditions: 10 min. The procedure:
PVSM were isolated and cultured from mouse penes. The cells were be switched to serum-free medium and treated with different concentrations of adenosine with or without A2B antagonist (MRS1706-1 μM) or A2A agonist (CGS-21680-1 μM) alone for 10 min. Then cellular extracts were collected and cAMP levels were measured using an ELISA kit. The data represent mean±SE.
Data are presented as mean±SE. *, p<0.01.
(§1) FIG. 18. Adenosine stimulated both cAMP and cGMP induction in corpus cavernosal smooth muscle cells (CCSM) via A2BR activation. (a) Adenosine receptor expression profile in purified primary CCSM. CCSM were purified from adult mouse penes. […] (b) CCSM were isolated and cultured from mouse penes. The cells were switched to serum-free medium and treated with different concentrations of adenosine with or without A2BR antagonist (MRS1706-10 μM), A2AR antagonist (ZM241385-50 nM) or A2AR agonist (CGS-21680-10 μM) alone for 10 min. Then cellular extracts were collected and cAMP levels were measured using an ELISA kit. The data represent mean±SE. *p<0.05, adenosine treated versus the untreated; **p<0.05, adenosine plus MRS1706 or ZM241385 versus the adenosine treated. (c) CCSM were isolated from penes of the wild type and A2BR-deficient mice and cultured with or without adenosine (100 μM), NECA (10 μM), a potent adenosine receptor agonist, forskolin (10 μM), an adenylyl cyclase agonist. After 10 min treatment, the cellular extracts were collected and cAMP levels were measured by using a commercial enzyme immunoassay kit (Amersham Pharmacia). N=4. *p<0.05, adenosine, forskolin and NECA treated versus the untreated control. (d) Corpus cavernosal strips (CCS) were isolated from wild type and A2BR-deficient mice and treated with different concentrations of adenosine in the presence or absence of L-NAME (100 μM) or MRS1706 (10 μM). 10 min after treatment, cellular extracts were collected and cGMP levels were measured by using a commercial enzyme immunoassay kit (Amersham Pharmacia). Data are expressed as mean±SE. *p<0.05, adenosine treated versus the control; **p<0.05, adenosine treated with MRS1706 versus the adenosine treated; ***p<0.05, CCS of A2BR-deficient mice treated with adenosine versus the CCS of wild type mice treated with adenosine. N=6-7. (e) CCSM were isolated from wild type and A2BR deficient mice and cultured with or without adenosine (100 μM), NECA (10 μM), a potent adenosine receptor agonist, forskolin (10 μM), an adenylyl cyclase agonist, or diethylamine-NONOate (DEA/NO) (10 μM). After 10 min treatment, the cellular extracts were collected and cAMP levels were measured by using a commercial enzyme immunoassay kit (Amersham Pharmacia). N=4. *p<0.05, DEA/NO treated versus to the untreated control. (f) Both cAMP and cGMP induction contribute to adenosine-mediated decreased PE-induced phosphorylation of myosin light chain (MLC). CCSM and CCS were isolated and cultured with the treatment of phenylephrine (PE-10 μM) in the presence or absence of adenosine (100 μM) or L-NAME (100 μM). 10 min after treatment, cellular extracts were isolated and western blot analysis were performed. The total MLC and phosphorylated MLC at S20 were detected by specific antibodies.
(§2) Isolation of primary corpus cavernosal smooth muscle cells (CCSM). Corpus cavernosum tissues were dissected as described above. Cavernosal tissue was washed in PBS and minced into […] pieces. Segments were incubated in 5-10 ml enzyme solutions containing 0.02% collagenase A (0.272 U/mg protein, Roche, Mannheim, Germany) and 0.5% elastase (3.73 U/mg protein, Cell system, St Katharinen, Germany) in a 75 mm flask at 37° C. for 6 hours. Enzymatic digestion was terminated by adding 10 ml DMEM supplemented with 10% fetal calf serum (FCS). […]

Assay [2] shares this test system. Briefly: cGMP levels in primary CCSM / PVSM. Particulars: CCSM/PVSM of both wild type and A2BR deficient mice, 10 min. In kind it is cell-based, mouse.
Text: Results for wild-type and A2B^−/− mouse were statistically significant, p<0.01.
as §1, with “After 10 min treatment, the cellular extracts were collected and cAMP levels were measured by using a commercial enzyme immunoassay kit (Amersham Pharmacia).” left out
as §2
Tissue and corpus cavernosum smooth muscle cell (CCSM) cAMP and cGMP measurement. Quantitative assays for cAMP and cGMP were performed by using a commercial enzyme immunoassay kit (Amersham Pharmacia). […]

The test system of assay [3] is corpus cavernosal strips (CCS). Description: Adenosine-induced relaxation of corpus cavernosal strips (CCS). Conditions: CCS of wild type mice, DCF 5 μM or 0-100 uM with adenosine 100 μM; listed as DCF. In kind it is cell-based, mouse. Here is the method: FIG. 16. […] CCS of wild type mice were treated with different concentrations of adenosine with or without DCF (5 μM), a specific inhibitor of adenosine deaminase. Then the extent (mN) of force was monitored. (b) CCS of wild type mice were treated with 100 μM adenosine in the presence of different concentrations of DCF (0-100 uM). Then the extent of force was measured. Data are expressed as mean±SE. *p<0.05, adenosine treated versus the control, **p<0.05, DCF treated versus the adenosine treated.
FIG. 17. A2BR signaling is required for adenosine-mediated corpus cavernosal strips (CCS) relaxation. (a) CCS of wild type mice were treated with different concentrations of theophiline (1-10 μM) in the presence or absence of adenosine (100 μM). The force changes were measured by force transducer. Data are expressed as mean±SE. *p<0.05, adenosine treated versus the control, **p<0.05, theophiline treated versus the untreated, N=5. (b) CCS from wild type, A2AR, A1R A2BR and A3R-deficient mice were treated with different concentrations of adenosine. The relaxation was measured by force transducer. Data are expressed as mean±SE. *p<0.05, adenosine treated versus the wild type. (c) CCS were isolated from wild type and A2BR-deficient mice and treated with different concentrations of adenosine in the presence or absence of L-NAME (100 μM) or MRS1706 (10 μM). 10 min after treatment, cellular extracts were collected and cAMP levels were measured by using a commercial enzyme immunoassay kit (Amersham Pharmacia). Data are expressed as mean±SE. *p<0.05, adenosine treated versus the control without treatment; **p<0.05, adenosine treated with MRS1706 versus the adenosine treated alone; ***p<0.05, CCS of A2BR-deficient mice treated with adenosine versus the CCS of wild type mice treated with adenosine. N=6-7. (d) CCS of A2BR and ADA double deficient mice lost the hypersensitivity to nerve stimulation compared to ADA deficient mice.
Function experiments. The tunica albuginea was cut longitudinally, starting at the most proximal point of the corpus cavernosum (CC) toward the penile shaft, and the erectile tissue was partially dissected free from the tunica. One strip of tissue (0.3×0.3×3 mm) was obtained from each corpus cavernosum. The contractility of each isolated corpus cavernosum smooth muscle cells (CCSM) strip was measured using an isometric force transducer (AD Instrument Inc., Georgia, Vt., USA). The strip was mounted in a thermostatically controlled tissue bath containing aerated PSS (mM: 119 NaCl, 4.7 KCl, 24 NaHCO 3, 1.2 KH2PO4, 2.5 CaCl2, 1.2 MgSO4, 0.023 EDTA, and 11 glucose; 5 ml volume, 95% O2 and 5% CO2, 37° C.) and stretched to a resting tension of 0.1 mN. The contractile responses of the strips were analysed by adding 10 μM phenylephrine to the bath, and force changes were recorded in response to drug application and to electrical field stimulation. The particular electrical field stimulation parameters of 0-30V, 30 HZ with a pulse width of approximately 0.5 ms, are commonly used in the mice. […] The changes of cAMP and cGMP contents in CC strips were subsequently measured by commercial enzyme immunoassay kit (Amersham Pharmacia) (see below).

In assay [4] the test system is corpus cavernosum of wild type, A2A-deficient and A2B-deficient mice. Briefly: Intracavernous injection of adenosine: intracavernous pressure (ICP) and penile erection. In kind it is in vivo, mouse. Conditions: wild type mice. Here is the method: FIG. 6. Different amounts of adenosine were injected into the corpus cavernosum of wild type, adenosine receptor A2A-deficient, and adenosine receptor A2B-deficient mice and the resulting change in ICP determined.
Methods: ADA-deficient mice and SCD transgenic mice, a well accepted priapism animal model, are the only animals known in which a persistent and prolonged penile erection occurs spontaneously. […] We have measured intracavernosal pressure and corpus cavernosal strip (CCS) relaxation with or without PEG-ADA treatment and/or a series of adenosine receptor antagonists or agonists in wild type ADA-deficient mice, and corpus cavernosal strip (CCS) relaxation with or without PEG-ADA treatment and/or a series of adenosine receptor antagonists or agonists in SCD transgenic mice, in response to nerve stimulation. We have also measured the intracavernosal pressure and CCS relaxation with or without adenosine treatment in wild type and multiple adenosine receptor deficient mice.

[5] abbreviates: wild type CCSM/PVSM, agent alone.

“Also recorded” adds a separate entry of the source.

With `CCNC(=O)[C@H]1O[C@@H](n2cnc3c(N)ncnc32)[C@H](O)[C@@H]1O` [NECA, 5′-N-ethylcarbosamide adenosine], the cAMP production result in assay [1] (CCSM/PVSM of A2BR deficient (A2B-/-) mice) is “essentially no effect on cAMP levels; also recorded: failed to induce cAMP production”; in assay [1] (setting [5]), “elevate cAMP levels; also recorded: induced cAMP”. Also, the cGMP levels result in assay [2] was “lack of significant differences in cGMP production; also recorded: had no effect”.
As for `CCN(CC)/[N+]([O-])=N/O.CCNCC` [DEA/NO, diethylamine-NONOate], the cGMP levels entry in assay [2] was “induced cGMP production”; in assay [2] (listed as diethylamine-NONOate), “comparable high levels of cGMP production”.
Consider `CCNC(=O)[C@H]1O[C@@H](n2cnc3c(N)nc(NCCc4ccc(CCC(=O)O)cc4)nc32)[C@H](O)[C@@H]1O` [CGS21690C], for which, in assay [1] (setting [5]), the cAMP production entry is given as “failed to induce cAMP production”.
In the case of `OC[C@H]1O[C@@H](n2cnc3c2NC=NC[C@H]3O)C[C@@H]1O` [deoxycoformycin], the “adenosine-induced CCS relaxation with ADA inhibitor versus adenosine alone” value in assay [3] is on record as “significantly increased relaxation compared with adenosine alone; also recorded: increased the adenosine induced relaxation of CCS”. Further, in assay [4] (co-injected with adenosine), the “adenosine-induced penile erection with ADA inhibitor” value is “prolonged”. The “adenosine-induced increase in pressure (ICP) with ADA inhibitor” value in assay [4] (coinjection with adenosine) is recorded as “prolonged the adenosine-induced increase in pressure”.
